Several values for one entry are separate records, joined by “and”; a condition that tells them apart may be missing. Equal entries are not always repeated. Activity calls are given as the source filed them.
Key:
Mu-type opioid receptor = Mu-type opioid receptor (Homo sapiens, UniProt P35372); assay type: functional, cell-based;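 further: U2OS cells with beta-arrestin recruitment to OPRM1 by beta-gal complementation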
[1] = target: 5-hydroxytryptamine receptor 2A (Mus musculus, UniProt P35363); assay type: functional, cell-based;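 further: CHO-K1 cells with tagged receptor and beta-arrestin; agonist potency measured as compound-induced activation of the receptor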
Paired box protein Pax-8 = Paired box protein Pax-8 (Homo sapiens, UniProt Q06710); assay: PAX8 transcriptional activity inhibition in RMG-I – RMG-I cells, luciferase, cherry-pick, dose response (AID 687027); assay type: functional, cell-based;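 further: luciferase reporter driven by Pax8 target thyroperoxidase promoter measured by SteadyGlo luminescence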
[2] = CMV-driven luciferase expression suppression in HEK293 – cell-based, luminescence, dry powder, counter-screen for Pax8 inhibitor project, dose response (AID 743020); assay type: functional
[3] = viability loss in HepG2 hepatoma cells – cell-based, cherry-picks, set 5, cytotoxicity control, dose response (AID 1053118); assay type: functional
[4] = target: T1, Beta-2 adrenergic receptor (Homo sapiens, UniProt P07550); assay: Dose response for HTS for Beta-2AR agonists via FAP method from Powderset1.; assay type: functional
[5] = target: T1, Beta-2 adrenergic receptor; assay: ADRB2 activation measured by internalization – cell-based, FAP fluorogen, flow cytometry, cherry pick 1, dose response (AID 588763); assay type: functional
[6] = target: Tyrosine-protein phosphatase non-receptor type 11 (Homo sapiens, UniProt Q06124); assay: PTPN11 enzyme inhibitors – biochemical, selectivity assay for STEP inhibitor project, dose response (AID 602367); assay type: functional; details: read-out: IC50_Mean
[7] = target: Tyrosine-protein phosphatase non-receptor type 5 (Homo sapiens, UniProt P54829); assay: PTPN5 enzyme inhibition – biochemical, fluorescence intensity, uHTS hits, confirmation (AID 602372); assay type: functional; details: read-out: IC50_Mean
[8] = target: Dual specificity protein phosphatase 3 (Homo sapiens, UniProt P51452); assay: VHR phosphatase inhibition, dose response, selectivity assay for STEP inhibitor project, biochemical (AID 602374); assay type: functional; details: read-out: IC50_Mean
[9] = target: T2, Tyrosine-protein phosphatase non-receptor type 22 (Homo sapiens, UniProt Q9Y2R2); assay: lymphoid phosphatase LYP inhibitors – biochemical, selectivity assay for STEP inhibitor project, dose response (AID 624241); assay type: functional
T2 sequence (Q9Y2R2 whole entry): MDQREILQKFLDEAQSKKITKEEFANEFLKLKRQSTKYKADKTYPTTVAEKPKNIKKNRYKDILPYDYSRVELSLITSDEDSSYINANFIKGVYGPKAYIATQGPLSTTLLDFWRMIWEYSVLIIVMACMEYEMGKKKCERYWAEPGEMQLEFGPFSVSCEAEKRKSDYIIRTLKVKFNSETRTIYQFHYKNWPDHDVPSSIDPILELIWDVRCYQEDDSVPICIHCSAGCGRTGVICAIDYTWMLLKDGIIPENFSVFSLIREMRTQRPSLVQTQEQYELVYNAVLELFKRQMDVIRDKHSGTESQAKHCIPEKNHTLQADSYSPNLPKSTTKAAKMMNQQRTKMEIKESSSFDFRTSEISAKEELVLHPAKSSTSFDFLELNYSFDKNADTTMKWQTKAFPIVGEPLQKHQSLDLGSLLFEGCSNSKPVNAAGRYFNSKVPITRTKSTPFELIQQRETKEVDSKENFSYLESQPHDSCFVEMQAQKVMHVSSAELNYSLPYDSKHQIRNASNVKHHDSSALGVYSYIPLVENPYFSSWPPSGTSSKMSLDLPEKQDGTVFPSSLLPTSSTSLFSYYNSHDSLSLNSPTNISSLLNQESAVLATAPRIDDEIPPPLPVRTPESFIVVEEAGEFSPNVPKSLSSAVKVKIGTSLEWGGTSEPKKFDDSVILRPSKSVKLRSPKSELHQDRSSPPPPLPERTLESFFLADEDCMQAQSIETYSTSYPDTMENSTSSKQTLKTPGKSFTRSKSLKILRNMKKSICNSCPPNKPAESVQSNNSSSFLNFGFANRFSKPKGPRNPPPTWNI

Galanin receptor type 3 = Galanin receptor type 3 (Homo sapiens, UniProt O60755); assay: Fluorescence-based cell-based primary high throughput dose response assay to identify antagonists of the Galanin Receptor 3 (GalR3).; assay type: functional
cells = assay type: functional, cell-based; details: HEK-CNG
[10] = general mammalian cell viability loss – inhibitor set, cherry-pick, set 2, cytotoxicity control for miR-122 modulator project, dose response (AID 720697); assay type: functional, cell-based
[11] = target: Broad substrate specificity ATP-binding cassette transporter ABCG2 (Homo sapiens, UniProt Q9UNQ0); assay: blockers of JC-1 export by ABCG2 – Ig-MXP3 cells, flow cytometry, dose response (AID 1690); assay type: functional
[12] = target: T3, Polyadenylate-binding protein 1 (Homo sapiens, UniProt P11940); assay: MLLE binding blockers, Cy5 peptide tracer – biochemical, fluorescence polarization, Cy5-PAM2 peptide, secondary, miRNA deadenylation inhibitor project, dose response (AID 602260); assay type: functional; details: read-out: IC50_Mean
[13] = target: T3, Polyadenylate-binding protein 1; assay: MLLE domain peptide-binding blockers, IC50 – biochemical, fluorescence polarization, FITC-PAM2 peptide, dose response (AID 602259); assay type: functional; details: read-out: IC50_Mean
[14] = target: Long-chain-fatty-acid--AMP ligase FadD28 (Mycobacterium tuberculosis, UniProt P9WQ59); assay: Fluorescence polarization aasay to screen for inhibitors that compete for the binding of FadD28 to a bisubstrate Measured in Biochemical System Using Plate Reader - 2147-01_Inhibitor_Dose_CherryPick_Activity.; assay type: functional, Mycobacterium tuberculosis H37Rv
[15] = target: Botulinum neurotoxin type F (Clostridium botulinum, UniProt P30996); assay: High-throughput multiplex microsphere dose response for inhibitors of toxin protease, specifically Botulinum neurotoxin light chain F protease, compounds from Cherry Pick 02.; assay type: functional; details: read-out: EC50_MICROM
Botulinum neurotoxin type F, sequence (P30996 1-436 limits assumed): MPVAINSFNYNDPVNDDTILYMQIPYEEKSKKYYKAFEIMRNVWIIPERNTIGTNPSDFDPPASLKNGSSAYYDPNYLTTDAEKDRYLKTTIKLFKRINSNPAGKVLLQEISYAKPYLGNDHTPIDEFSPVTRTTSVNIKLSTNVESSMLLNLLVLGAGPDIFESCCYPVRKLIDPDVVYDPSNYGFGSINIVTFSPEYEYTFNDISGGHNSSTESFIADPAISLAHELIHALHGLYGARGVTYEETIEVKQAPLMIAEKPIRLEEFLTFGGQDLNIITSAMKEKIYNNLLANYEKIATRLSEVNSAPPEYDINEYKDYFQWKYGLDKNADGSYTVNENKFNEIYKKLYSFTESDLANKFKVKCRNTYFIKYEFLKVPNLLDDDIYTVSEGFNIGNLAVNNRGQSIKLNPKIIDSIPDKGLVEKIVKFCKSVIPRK

T1 sequence (P07550 whole entry): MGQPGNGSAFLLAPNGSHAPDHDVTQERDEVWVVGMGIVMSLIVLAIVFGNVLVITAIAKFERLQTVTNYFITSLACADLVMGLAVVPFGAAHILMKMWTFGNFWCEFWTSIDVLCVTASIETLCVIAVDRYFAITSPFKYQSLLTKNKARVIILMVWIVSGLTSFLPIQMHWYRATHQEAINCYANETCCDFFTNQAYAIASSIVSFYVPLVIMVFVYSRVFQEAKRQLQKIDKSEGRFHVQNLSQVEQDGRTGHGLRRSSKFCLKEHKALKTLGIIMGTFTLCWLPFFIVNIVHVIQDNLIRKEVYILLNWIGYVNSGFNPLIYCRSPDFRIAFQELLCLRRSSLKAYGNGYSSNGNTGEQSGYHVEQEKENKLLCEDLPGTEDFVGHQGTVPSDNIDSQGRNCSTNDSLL
T3 sequence (P11940 whole entry, the tested form may be a part): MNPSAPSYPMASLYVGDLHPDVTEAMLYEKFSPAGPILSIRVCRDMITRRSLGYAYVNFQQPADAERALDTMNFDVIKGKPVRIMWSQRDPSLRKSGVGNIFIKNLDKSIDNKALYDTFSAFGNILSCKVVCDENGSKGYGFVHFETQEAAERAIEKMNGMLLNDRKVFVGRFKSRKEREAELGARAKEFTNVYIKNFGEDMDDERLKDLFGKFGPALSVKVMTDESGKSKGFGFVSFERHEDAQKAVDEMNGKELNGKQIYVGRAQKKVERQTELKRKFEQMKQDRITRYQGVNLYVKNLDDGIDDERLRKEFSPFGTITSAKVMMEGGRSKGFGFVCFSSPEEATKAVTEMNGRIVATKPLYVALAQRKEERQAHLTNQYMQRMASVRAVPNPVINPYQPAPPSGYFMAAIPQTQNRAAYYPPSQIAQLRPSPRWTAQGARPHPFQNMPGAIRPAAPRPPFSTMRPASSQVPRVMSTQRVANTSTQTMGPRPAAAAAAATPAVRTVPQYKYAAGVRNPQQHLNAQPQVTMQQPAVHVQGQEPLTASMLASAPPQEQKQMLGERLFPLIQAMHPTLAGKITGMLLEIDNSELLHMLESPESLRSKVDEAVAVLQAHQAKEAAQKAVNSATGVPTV
5-hydroxytryptamine receptor 2A, sequence (P35363 whole entry): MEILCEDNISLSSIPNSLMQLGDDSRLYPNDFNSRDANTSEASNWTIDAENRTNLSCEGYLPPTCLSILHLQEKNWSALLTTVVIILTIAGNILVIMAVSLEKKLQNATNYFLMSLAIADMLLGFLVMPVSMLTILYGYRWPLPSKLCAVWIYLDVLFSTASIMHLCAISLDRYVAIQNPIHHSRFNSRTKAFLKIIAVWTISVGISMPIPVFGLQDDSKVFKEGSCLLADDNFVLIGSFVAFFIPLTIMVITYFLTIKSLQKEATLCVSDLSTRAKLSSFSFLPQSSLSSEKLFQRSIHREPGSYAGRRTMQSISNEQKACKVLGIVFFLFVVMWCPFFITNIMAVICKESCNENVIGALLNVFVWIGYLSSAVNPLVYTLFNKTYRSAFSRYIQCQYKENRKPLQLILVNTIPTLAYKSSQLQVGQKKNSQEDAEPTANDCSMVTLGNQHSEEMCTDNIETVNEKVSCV
Tyrosine-protein phosphatase non-receptor type 5, sequence (P54829 whole entry): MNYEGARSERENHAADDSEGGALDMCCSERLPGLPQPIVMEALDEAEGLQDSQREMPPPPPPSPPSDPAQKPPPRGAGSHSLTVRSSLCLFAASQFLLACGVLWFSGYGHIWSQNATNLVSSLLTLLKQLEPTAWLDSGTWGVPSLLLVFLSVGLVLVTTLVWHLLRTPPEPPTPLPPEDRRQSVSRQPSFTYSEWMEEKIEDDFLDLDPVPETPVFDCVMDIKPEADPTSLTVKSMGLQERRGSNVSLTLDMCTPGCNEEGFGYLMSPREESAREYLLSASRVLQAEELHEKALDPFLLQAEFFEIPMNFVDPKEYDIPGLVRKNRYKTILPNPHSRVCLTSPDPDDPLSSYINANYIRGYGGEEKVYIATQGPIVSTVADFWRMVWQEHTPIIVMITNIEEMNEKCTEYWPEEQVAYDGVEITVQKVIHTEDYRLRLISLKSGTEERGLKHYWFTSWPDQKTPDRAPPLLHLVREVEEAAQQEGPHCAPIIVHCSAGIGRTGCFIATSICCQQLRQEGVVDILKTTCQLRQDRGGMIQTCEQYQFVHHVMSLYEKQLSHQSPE
Paired box protein Pax-8, sequence (Q06710 whole entry): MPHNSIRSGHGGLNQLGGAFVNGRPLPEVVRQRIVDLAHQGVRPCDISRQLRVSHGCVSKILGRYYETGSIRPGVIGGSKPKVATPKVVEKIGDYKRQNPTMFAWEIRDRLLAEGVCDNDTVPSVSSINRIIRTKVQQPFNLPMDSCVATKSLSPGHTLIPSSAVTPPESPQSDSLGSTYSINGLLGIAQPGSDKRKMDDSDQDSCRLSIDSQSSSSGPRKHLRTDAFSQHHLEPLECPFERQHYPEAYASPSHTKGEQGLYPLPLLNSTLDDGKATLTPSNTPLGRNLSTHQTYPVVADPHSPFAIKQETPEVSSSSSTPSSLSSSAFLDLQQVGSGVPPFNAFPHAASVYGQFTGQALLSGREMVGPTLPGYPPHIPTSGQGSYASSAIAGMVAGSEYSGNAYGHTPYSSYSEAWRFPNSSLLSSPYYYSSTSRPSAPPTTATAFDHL
Mu-type opioid receptor, sequence (P35372 whole entry): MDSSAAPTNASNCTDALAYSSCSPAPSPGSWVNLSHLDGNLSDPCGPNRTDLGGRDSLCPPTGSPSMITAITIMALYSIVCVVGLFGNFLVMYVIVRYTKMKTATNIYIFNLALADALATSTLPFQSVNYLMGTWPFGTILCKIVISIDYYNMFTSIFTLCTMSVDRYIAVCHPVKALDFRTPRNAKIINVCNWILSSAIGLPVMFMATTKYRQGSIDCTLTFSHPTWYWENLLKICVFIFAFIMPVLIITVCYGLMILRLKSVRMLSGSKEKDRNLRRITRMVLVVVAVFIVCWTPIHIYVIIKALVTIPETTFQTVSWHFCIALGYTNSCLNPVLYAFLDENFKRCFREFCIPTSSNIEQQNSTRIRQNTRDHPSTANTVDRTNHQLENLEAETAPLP
Galanin receptor type 3, sequence (O60755 whole entry): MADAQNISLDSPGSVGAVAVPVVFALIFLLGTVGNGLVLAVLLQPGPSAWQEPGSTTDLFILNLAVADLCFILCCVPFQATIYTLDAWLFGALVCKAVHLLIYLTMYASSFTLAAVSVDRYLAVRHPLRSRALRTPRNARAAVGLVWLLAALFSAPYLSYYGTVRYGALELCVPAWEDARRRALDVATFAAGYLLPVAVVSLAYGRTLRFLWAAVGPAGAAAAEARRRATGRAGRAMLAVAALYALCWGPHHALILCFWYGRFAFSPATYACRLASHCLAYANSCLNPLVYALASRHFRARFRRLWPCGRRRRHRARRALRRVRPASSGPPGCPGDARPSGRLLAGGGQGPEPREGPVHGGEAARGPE
Tyrosine-protein phosphatase non-receptor type 11, sequence (Q06124 whole entry): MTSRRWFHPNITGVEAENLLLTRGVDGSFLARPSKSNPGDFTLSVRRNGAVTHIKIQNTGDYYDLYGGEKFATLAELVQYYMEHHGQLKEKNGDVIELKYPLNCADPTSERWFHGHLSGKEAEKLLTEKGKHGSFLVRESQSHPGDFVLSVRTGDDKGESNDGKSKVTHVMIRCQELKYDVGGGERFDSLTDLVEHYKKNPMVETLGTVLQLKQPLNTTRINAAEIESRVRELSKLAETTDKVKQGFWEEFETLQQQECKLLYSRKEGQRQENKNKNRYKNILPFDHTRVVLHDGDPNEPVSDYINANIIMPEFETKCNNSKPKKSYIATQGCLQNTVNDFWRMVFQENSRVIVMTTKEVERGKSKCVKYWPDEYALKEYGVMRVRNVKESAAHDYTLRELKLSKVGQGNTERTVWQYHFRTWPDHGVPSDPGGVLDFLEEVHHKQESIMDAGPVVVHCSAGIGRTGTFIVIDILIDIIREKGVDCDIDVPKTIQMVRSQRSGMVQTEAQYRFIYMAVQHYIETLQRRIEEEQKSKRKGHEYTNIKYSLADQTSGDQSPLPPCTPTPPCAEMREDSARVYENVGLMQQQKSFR
Dual specificity protein phosphatase 3, sequence (P51452 whole entry): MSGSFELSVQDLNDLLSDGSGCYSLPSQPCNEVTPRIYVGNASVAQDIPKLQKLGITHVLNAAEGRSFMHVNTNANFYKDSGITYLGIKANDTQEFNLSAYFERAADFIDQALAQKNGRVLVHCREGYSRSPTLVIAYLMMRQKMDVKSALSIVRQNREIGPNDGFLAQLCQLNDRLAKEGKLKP

For `Clc1ccc(CN2CCN(c3ncccn3)CC2)cc1Cl`, the EC50 (Mu-type opioid receptor) was 92.5 µM (inactive) and the EC50 [1] was 0.424 µM (active).
In the case of `Cc1ccc(S(=O)(=O)CCC(=O)c2ccc(F)cc2)cc1`, the AC50 (Paired box protein Pax-8) is reported as 11.3 µM (active) and the AC50 [2] is reported as 27.9 µM (active).
With `Cc1ccc(N(CC(=O)NCc2ccco2)S(=O)(=O)c2ccccc2)cc1` the AC50 [3] was > 52 µM (inactive).
In the case of `Cc1ccc(S(=O)(=O)N(C)CC(=O)N2CCN(c3ccccn3)CC2)cc1`, the EC50 [4] is reported as 0.002 µM (active) and the EC50 [5] is reported as 167 nM (active) and 60.7 nM (active).
In the case of `Cc1c(C)c2ccc(OCC(=O)Nc3ccc(S(N)(=O)=O)cc3)c(C)c2oc1=O`, the IC50 [6] is reported as 6.82 µM (active), the IC50 [7] is reported as 22.9 µM (inactive) and the IC50 [8] is reported as 10.8 µM (active). For the same compound, the IC50 [9] was 44.9 µM (inactive).
For `Cc1nc(O)c(C#N)cc1-c1ccccc1`, the IC50 (Galanin receptor type 3) was 5.68 µM (active), the EC50 (cells) was > 29.9 µM (inactive) and the AC50 [10] was 2.43 µM (active).
In the case of `O=[N+]([O-])c1ccc(Nc2nc(Cl)nc(NCCO)n2)cc1`, the EC50 [11] is reported as 4.63 µM (active).
In the case of `COc1ccc(NC(=O)CSc2ccc([N+](=O)[O-])cc2)cc1S(=O)(=O)N1CCOCC1`, the IC50 [12] is reported as > 66 µM (inactive), the IC50 [13] is reported as > 66 µM (inactive) and the AC50 [14] is reported as 24.7 µM (active).
With `CN(CC(=O)NC1CCN(Cc2ccccc2)CC1)S(=O)(=O)c1ccc(Cl)cc1` the EC50 [15] was > 20 µM (inactive).

From ChEMBL document CHEMBL1201862, “PubChem BioAssay data set” (2004)
